# US20160355483A1, “COMPOUND BINDING TO PPARG BUT NOT ACTING AS PROMOTER AND PHARMACEUTICAL COMPOSITION FOR TREATING PPARG-RELATED DISEASES CONTAINING SAME AS ACTIVE INGREDIENT” (Hyundai Pharm Co., Ltd., priority 2014, published 2016)
# Molecular target: T1, PPARG (peroxisome proliferator activated receptor-gamma), GST-PPARG-LBD (Homo sapiens, UniProt P37231)
# T1 construct: 15 μL of 5 nM GST-PPARG-LBD and 5 nM Tb-GST-antibody were added; purchased Invitrogen PV4894
# T1 sequence (P37231 238-503 limits assumed): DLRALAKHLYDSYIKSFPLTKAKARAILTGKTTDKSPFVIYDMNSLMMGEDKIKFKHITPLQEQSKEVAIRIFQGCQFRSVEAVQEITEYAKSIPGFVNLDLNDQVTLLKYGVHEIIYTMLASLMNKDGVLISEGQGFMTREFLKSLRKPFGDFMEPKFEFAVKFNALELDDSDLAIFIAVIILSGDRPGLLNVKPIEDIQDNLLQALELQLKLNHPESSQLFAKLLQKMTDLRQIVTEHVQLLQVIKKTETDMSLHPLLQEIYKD
# Experiment: LanthaScreen TR-FRET PPARG Competitive Binding Assay
# Parameters: key: “+” indicates the degree of the binding activity, and as the number of “+” increases, the binding activity is stronger; ++: “+” indicates the degree of the binding activity, and as the number of “+” increases, the binding activity is stronger; +++: “+” indicates the degree of the binding activity, and as the number of “+” increases, the binding activity is stronger; ++++: “+” indicates the degree of the binding activity, and as the number of “+” increases, the binding activity is stronger
# Conditions: degree of binding activity
# How it was run: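 GST-tagged human PPARG LBD in a TR-FRET competitive binding kit, 1 h at room temperature. Read-out is the 518/488 nm emission ratio (340 nm excitation); activity = 100% − compound ratio/vehicle ratio, compared with rosiglitazone.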
row,Binding assay (1 μLM),SMILES
1,++++,"C[C@H](NC(=O)c1ccc2c(c1)CCCN2Cc1cccc(-c2ccccc2C(N)=O)c1F)c1ccc2ccccc2c1 [Example 132, (S)-1-((2′-carbamoyl-2-fluoro-[1,1′-biphenyl]-3-yl)methyl)-N-(1-(naphthalene-2-yl)ethyl)-1,2,3,4-tetrahydroquinoline-6-carboxamide]"
2,+,"O=C(NCc1ccc([N+](=O)[O-])cc1)c1ccc2c(c1)OCCN2Cc1ccc(-c2ccccc2C(=O)O)cc1 [Example 66, 4′-((7-((4-nitrobenzyl)carbamoyl)-2H-benzo[b][1,4]oxazine-4(3H)-yl)methyl)-[1,1′-biphenyl]-2-carboxylic acid]"
3,++,"C[C@H](NC(=O)c1ccc2c(c1)CCCN2Cc1ccccc1-c1ccc(C(N)=O)cc1)c1ccc2ccccc2c1 [Example 160, (S)-1-((4′-carbamoyl-[1,1′-biphenyl]-2-yl)methyl)-N-(1-(naphthalene-2-yl)ethyl)-1,2,3,4-tetrahydroquinoline-6-carboxamide]"
4,+++,"C[C@H](NC(=O)c1ccc2c(c1)CCCN2Cc1cccc(-c2ccccc2C(=O)O)c1)c1ccccc1 [Example 116, (S)-3′-((6-((1-phenylethyl)carbamoyl)-3,4-dihydroquinoline-1(2H)-yl)methyl)-[1,1′-biphenyl]-2-carboxylic acid]"
5,++,"O=C(NCc1ccc2c(c1)OCCO2)c1ccc2c(c1)OCCN2Cc1ccc(-c2ccccc2C(=O)O)cc1 [Example 93, 4′-((7-(((2,3-dihydrobenzo[b][1,4]dioxin-6-yl)methyl)carbamoyl)-2H-benzo[b][1,4]oxazine-4(3H)-yl)methyl)-[1,1′-biphenyl]-2-carboxylic acid]"
6,++,"C[C@H](NC(=O)c1ccc2c(c1)OCCN2Cc1ccc(-c2ccccc2C(=O)O)cc1)c1cccc2ccccc12 [Example 70, (S)-4′-((7-((1-(naphthalene-1-yl)ethyl)carbamoyl)-2H-benzo[b][1,4]oxazine-4(3H)-yl)methyl)-[1,1′-biphenyl]-2-carboxylic acid]"
7,++,"C[C@H](NC(=O)c1ccc2c(c1)CCCN2Cc1ccc(-c2ccccc2C(N)=O)cc1)c1ccccc1C(F)(F)F [Example 43, (S)-1-((2′-carbamoyl-[1,1′-biphenyl]-4-yl)methyl)-N-(1-(2-(trifluoromethyl)phenyl)ethyl)-1,2,3,4-tetrahydroquinoline-6-carboxamide]"
8,+++,"O=C(NCc1ccc([N+](=O)[O-])cc1)c1ccc2c(c1)CCCN2Cc1ccc(-c2ccccc2C(=O)O)cc1 [Example 8, 4′-((6-((4-nitrobenzyl)carbamoyl)-3,4-dihydroquinoline-1(2H)-yl)methyl)-[1,1′-biphenyl]-2-carboxylic acid]"
9,+++,"CC[C@H](NC(=O)c1ccc2c(c1)OCCN2Cc1ccc(-c2ccccc2C(=O)O)cc1)c1ccccc1 [Example 62, (S)-4′-((7-((1-phenylpropyl)carbamoyl)-2H-benzo[b][1,4]oxazine-4(3H)-yl)methyl)-[1,1′-biphenyl]-2-carboxylic acid]"
10,++,"O=C(NCc1ccccc1)c1ccc2c(c1)OCCN2Cc1ccc(-c2ccccc2C(=O)O)cc1 [Example 67, 4′-((7-(benzylcarbamoyl)-2H-benzo[b][1,4]oxazine-4(38)-yl)methyl)-[1,1′-biphenyl]-2-carboxylic acid]"
11,+++,"C[C@H](NC(=O)c1ccc2c(c1)OCCN2Cc1ccc(-c2ccccc2C(N)=O)cc1)c1cccc(F)c1 [Example 95, (S)-4-((2′-carbamoyl-[1,1′-biphenyl]-4-yl)methyl)-N-(1-(3-fluorophenyl)ethyl)-3,4-dihydro-2H-benzo[b][1,4]oxazine-7-carboxamide]"
12,+++,"COc1ccccc1[C@H](C)NC(=O)c1ccc2c(c1)CCCN2Cc1ccc(-c2ccccc2C(=O)O)cc1 [Example 23, (S)-4′-((6-((1-(2-methoxyphenyl)ethyl)carbamoyl)-3,4-dihydroquinoline-1(2H)-yl)methyl)-[1,1′-biphenyl]-2-carboxylic acid]"
13,++++,"C[C@H](NC(=O)c1ccc2c(c1)CCCN2Cc1cc(-c2ccccc2C(N)=O)ccc1F)c1ccc2ccccc2c1 [Example 140, (S)-1-((2′-carbamoyl-4-fluoro-[1,1′-biphenyl]-3-yl)methyl)-N-(1-(naphthalene-2-yl)ethyl)-1,2,3,4-tetrahydroquinoline-6-carboxamide]"
14,+,"O=C(NC1COc2ccccc2C1)c1ccc2c(c1)CCCN2Cc1ccc(-c2ccccc2C(=O)O)cc1 (stereo not drawn) [Example 15, 4′-((6-(cromene-3-ylcarbamoyl)-3,4-dihydroquinoline-1(2H)-yl)methyl)-[1,1′-biphenyl]-2-carboxylic acid]"
15,+++,"C[C@H](NC(=O)c1ccc2c(c1)OCCN2Cc1ccc(-c2ccccc2C(N)=O)cc1)c1ccc(SC(F)(F)F)cc1 [Example 99, (S)-4-((2′-carbamoyl-[1,1′-biphenyl]-4-yl)methyl)-N-(1-(4-((trifluoromethyl)thio)phenyl)ethyl)-3,4-dihydro-2H-benzo[b][1,4]oxazine-7-carboxamide]"
16,+++,"Cc1ccc([C@H](C)NC(=O)c2ccc3c(c2)CCCN3Cc2cccc(-c3ccccc3C(=O)O)c2)cc1F [Example 121, (S)-3′-((6-((1-(3-fluoro-4-methylphenyl)ethyl)carbamoyl)-3,4-dihydroquinoline-1(2H)-yl)methyl)-[1,1′-biphenyl]-2-carboxylic acid]"
17,+,"NC(=O)c1ccccc1-c1ccc(CN2CCOc3cc(C(=O)NCc4ccncc4)ccc32)cc1 [Example 98, 4-((2′-carbamoyl-[1,1′-biphonyl]-4-yl)methyl)-N-(pyridine-4-ylmethyl)-3,4-dihydro-2H-benzo[b][1,4]oxazine-7-carboxamide]"
18,+,"O=C(NCc1ccccn1)c1ccc2c(c1)OCCN2Cc1ccc(-c2ccccc2C(=O)O)cc1 [Example 88, 4′-((7-((pyridine-2-ylmethyl)carbamoyl)-2H-benzo[b][1,4]oxazine-4(3H)-yl)methyl)-[1,1′-biphenyl]-2-carboxylic acid]"
19,+++,"C[C@H](NC(=O)c1ccc2c(c1)OCCN2Cc1ccccc1-c1ccc(C(=O)O)cc1)c1ccc2ccccc2c1 [Example 147, (S)-2′-((7-((1-(naphthalene-2-yl)ethyl)carbamoyl)-2H-benzo[b][1,4]oxazine-4(3H)-yl)methyl)-[1,1′-biphenyl]-4-carboxylic acid]"
20,++++,"C[C@H](NC(=O)c1ccc2c(c1)CCCN2Cc1ccc(-c2ccccc2C(=O)O)cc1)c1ccc(OC(F)(F)F)cc1 [Example 11, (s)-4′-((6-((1-(4-(trifluoromethoxy)phenyl)ethyl)carbamoyl)-3,4-dihydroquinoline-1(2H)-yl)methyl)-[1,1′-biphenyl]-2-carboxylic acid]"
21,+,"C[C@H](NC(=O)c1ccc2c(c1)CCCN2Cc1ccc(-c2ccccc2C(=O)O)cc1)c1ccc([N+](=O)[O-])cc1 [Example 3, (S)-4′-((6-((1-(4-nitrophenyl)ethyl)carbamoyl)-3,4-dihydroquinoline-1(2H)-yl)methyl)-[1,1′-biphenyl]-2-caboxylic acid]"
22,+++,"C[C@H](NC(=O)c1ccc2c(c1)CCCN2Cc1ccc(-c2ccccc2C(=O)O)cc1)c1c(F)cccc1F [Example 16, (S)-4′-((6-((1-(2,6-fluorophenyl)ethyl)carbamoyl)-3,4-dihydroquinoline-1 (2H)-yl)methyl)-[1,1′-biphenyl]-2-carboxylic acid]"
23,+++,"COc1cccc([C@H](C)NC(=O)c2ccc3c(c2)CCCN3Cc2ccc(-c3ccccc3C(=O)O)cc2)c1 [Example 22, (S)-4′-((6-((1-(3-methoxyphenyl)ethyl)carbamoyl)-3,4-dihydroquinoline-1(2H)-yl)methyl)-[1,1′-biphenyl]-2-caboxylic acid]"
24,++++,"Cc1ccc([C@H](C)NC(=O)c2ccc3c(c2)CCCN3Cc2ccc(-c3ccccc3C(=O)O)cc2F)cc1F [Example 111, (S)-3′-fluoro-4′-((6-((1-(3-fluoro-4-methylphenyl)ethyl)carbamoyl)-3,4-dihydroquinoline-1(2H)-yl)methyl)-[1,1′-biphenyl]-2-caboxylic acid]"
25,++,"C[C@H](NC(=O)c1ccc2c(c1)OCCN2Cc1ccc(-c2ccccc2C(=O)O)cc1)c1cccc(Cl)c1 [Example 65, (S)-4′-((7-((1-(3-chlorophenyl)ethyl)carbamoyl)-2H-benzo[b][1,4]oxazine-4(3H)-yl)methyl)-[1,1′-biphenyl]-2-carboxylic acid]"
26,+++,"C[C@@H](NC(=O)c1ccc2c(c1)OCCN2Cc1ccc(-c2ccccc2C(=O)O)cc1)c1ccc(C#N)cc1 [Example 81, (R)-4′-((7-((1-(4-cyanophenyl)ethyl)carbamoyl)-2H-benzo[b][1,4]oxazine-4(3H)-yl)methyl)-[1,1′-biphenyl]-2-carboxylic acid]"

row,SMILES,Binding assay (1 μLM)
1,"C[C@H](NC(=O)c1ccc2c(c1)OCCN2Cc1ccc(-c2ccccc2C(=O)[O-])cc1)c1ccc([N+](=O)[O-])cc1.[Na+] [Example 105, sodium (S)-4′-((7-((1-(4-nitrophenyl)ethyl)carbamoyl)-2-benzo[b][1,4]oxazine-4(3H)-yl)methyl)-[1,1′-biphenyl]-2-carboxylate]",+
